Results as given in patent publication US20100278897A1, “INTRAOCULAR BIOACTIVE AGENT DELIVERY SYSTEM WITH MOLECULAR PARTITIONING SYSTEM” (ALLERGAN, INC., priority 2009, published 2010).

Assay: Elimination of Compound A from the eye
Type: in vivo
Details: intraocular

half-life of elimination from the eye: a few hours
Structure (SMILES): Cc1ccoc1C(=O)Nc1cccc(C#Cc2cncc(C(=O)N=[S@](=O)(CCCN3CCN(CCOCCO)CC3)c3ccccc3)c2)c1 [Compound A]
